In the assay the target is T1, B7-1/CD28 (Homo sapiens, UniProt P33681).
T1 sequence (P33681 35-242 limits assumed): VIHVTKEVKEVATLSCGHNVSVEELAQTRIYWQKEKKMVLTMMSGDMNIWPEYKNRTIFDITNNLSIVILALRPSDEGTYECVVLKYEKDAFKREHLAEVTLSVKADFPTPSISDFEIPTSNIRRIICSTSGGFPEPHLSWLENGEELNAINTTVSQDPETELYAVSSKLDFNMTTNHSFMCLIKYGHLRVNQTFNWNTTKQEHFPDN
As to the kind of experiment: CD28/B7-1 ELISA (B7-1/CD28 binding inhibition). To be noted: CD28-Fc coated wells, B7-1-Fc-biotin detection complex. The procedure:
Evaluation of B7-1/CD28 Binding Inhibition for Test Compounds
Wells are coated with 300 ng CD28-Fc in carbonate buffer (pH 9.4) overnight at 4° C., blocked with 1% bovine serum albumin in tris-buffered saline (TBS) for 1 h at 22° C. and washed 3 times in TBS prior to assay. The detection complex is formed as follows: B7-1-Fc-biotin, prepared using NHS-LC-biotin (Pierce #21335) according to the manufacturers instructions (4.1 moles biotin/mole Fc), is added at 0.8 ug/ml to streptavidin-alkaline phosphatase (Caltag Sa1008 at 1:1000 in TBS. Gradient dilutions of test compound in dimethylsulfoxide (1% final) are added to this complex and incubated 30 min. at 22° C. Detection complex (+/− inhibitors) is then added to the CD28 coated wells for 25 min. at 22° C., washed 5 times with TBS, developed with the calorimetric substrate pNPP (Pierce #34045) in diethanolamine/MgCl2 buffer (pH 9.5) and read at 405 nm. The inhibition constant (IC50) is calculated by subtracting the background binding and comparing to uninhibited (DMSO alone) controls. The inhibition constant represents the concentration of test compound required to achieve 50% inhibition.

For the compound `O=c1c2c(-c3cccc(C(F)(F)F)c3)nc3sccc3c2[nH]n1-c1ccc(Cl)cc1` [Example 4, 2-(4-chlorophenyl)-4-[3-(trifluoromethyl)phenyl]-1,2-dihydro-3H-pyrazolo-[3,4-d]thieno[2,3-b]pyridin-3-one], the half-inhibitory concentration (IC50) was found to be 500 nM.
The value for `O=c1c2c(-c3cccc(C(F)(F)F)c3)nc3sccc3c2[nH]n1-c1ccc(F)cc1` [Example 3, 2-(4-Fluorophenyl)-4-[3-(trifluoromethyl)phenyl]1,2-dihydro-3H-pyrazolo[3,4-d]thieno[2,3-b]pyridin-3-one] was 600 nM.

Values taken from patent US6833374B2, “Dihydropyrazolo[3,4-d]thieno[2,3-B]pyridinone inhibitors of B7-1” (Wyeth, priority 2002, dated 2004).
